# Source: BindingDB's records for doi:10.1046/j.1468-2982.2001.00157.x (Roche Bioscience, 2001)
# How the values were obtained:
# [1] = target: 5-hydroxytryptamine receptor 7 (Rattus norvegicus, UniProt P32305)
# [2] = target: 5-hydroxytryptamine receptor 1D (Rattus norvegicus, UniProt P28565)
# [3] = target: T1, 5-hydroxytryptamine receptor 3A (Rattus norvegicus, UniProt P35563)
# T1 sequence (P35563 whole entry): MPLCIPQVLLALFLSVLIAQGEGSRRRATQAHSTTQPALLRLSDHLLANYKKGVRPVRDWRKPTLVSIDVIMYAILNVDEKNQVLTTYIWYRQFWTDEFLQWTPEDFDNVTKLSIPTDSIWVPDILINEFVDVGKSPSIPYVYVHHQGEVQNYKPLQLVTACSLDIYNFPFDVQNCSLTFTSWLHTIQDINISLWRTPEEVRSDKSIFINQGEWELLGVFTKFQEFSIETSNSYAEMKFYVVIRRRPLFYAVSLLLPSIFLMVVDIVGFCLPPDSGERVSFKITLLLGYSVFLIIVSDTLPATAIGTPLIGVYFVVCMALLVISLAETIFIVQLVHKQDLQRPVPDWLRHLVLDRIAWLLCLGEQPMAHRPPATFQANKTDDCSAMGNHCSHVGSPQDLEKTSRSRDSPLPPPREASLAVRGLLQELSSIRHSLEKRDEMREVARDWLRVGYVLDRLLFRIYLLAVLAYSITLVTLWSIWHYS
# [4] = target: 5-hydroxytryptamine receptor 2A (Rattus norvegicus, UniProt P14842)
# [5] = target: 5-hydroxytryptamine receptor 1B (Rattus norvegicus, UniProt P28564)
# [6] = target: 5-hydroxytryptamine receptor 6 (Rattus norvegicus, UniProt P31388)
# Sequence of 5-hydroxytryptamine receptor 6 (P31388 whole entry): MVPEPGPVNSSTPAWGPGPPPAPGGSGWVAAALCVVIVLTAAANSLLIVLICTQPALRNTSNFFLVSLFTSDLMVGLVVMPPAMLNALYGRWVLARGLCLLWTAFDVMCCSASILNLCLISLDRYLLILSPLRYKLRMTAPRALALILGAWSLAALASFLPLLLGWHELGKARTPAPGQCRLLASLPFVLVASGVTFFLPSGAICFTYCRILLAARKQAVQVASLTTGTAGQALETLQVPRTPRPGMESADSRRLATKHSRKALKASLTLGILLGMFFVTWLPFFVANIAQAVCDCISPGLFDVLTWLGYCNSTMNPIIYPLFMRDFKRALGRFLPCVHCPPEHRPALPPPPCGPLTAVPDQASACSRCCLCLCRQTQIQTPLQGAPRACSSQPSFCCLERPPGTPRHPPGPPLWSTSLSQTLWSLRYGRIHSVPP
# Sequence of 5-hydroxytryptamine receptor 1B (P28564 whole entry): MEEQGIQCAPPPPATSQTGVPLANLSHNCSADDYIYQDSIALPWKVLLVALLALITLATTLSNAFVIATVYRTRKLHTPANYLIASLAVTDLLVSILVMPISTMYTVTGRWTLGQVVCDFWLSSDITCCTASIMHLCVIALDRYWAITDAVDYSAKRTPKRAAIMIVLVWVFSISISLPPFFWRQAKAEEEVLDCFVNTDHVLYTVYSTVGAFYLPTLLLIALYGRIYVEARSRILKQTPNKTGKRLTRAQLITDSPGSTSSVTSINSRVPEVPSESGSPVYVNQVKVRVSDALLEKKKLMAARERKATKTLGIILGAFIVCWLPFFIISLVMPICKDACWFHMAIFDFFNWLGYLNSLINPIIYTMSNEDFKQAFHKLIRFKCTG
# Sequence of 5-hydroxytryptamine receptor 1D (P28565 whole entry): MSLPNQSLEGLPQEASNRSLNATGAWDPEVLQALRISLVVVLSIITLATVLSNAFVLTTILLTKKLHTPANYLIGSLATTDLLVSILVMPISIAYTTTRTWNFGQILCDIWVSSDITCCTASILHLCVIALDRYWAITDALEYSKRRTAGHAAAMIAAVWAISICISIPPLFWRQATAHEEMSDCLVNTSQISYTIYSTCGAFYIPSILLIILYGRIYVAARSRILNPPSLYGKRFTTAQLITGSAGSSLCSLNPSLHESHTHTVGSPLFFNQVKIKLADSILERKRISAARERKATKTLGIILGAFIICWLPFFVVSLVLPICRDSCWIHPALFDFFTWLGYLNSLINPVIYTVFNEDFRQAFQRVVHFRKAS
# Sequence of 5-hydroxytryptamine receptor 7 (P32305 whole entry): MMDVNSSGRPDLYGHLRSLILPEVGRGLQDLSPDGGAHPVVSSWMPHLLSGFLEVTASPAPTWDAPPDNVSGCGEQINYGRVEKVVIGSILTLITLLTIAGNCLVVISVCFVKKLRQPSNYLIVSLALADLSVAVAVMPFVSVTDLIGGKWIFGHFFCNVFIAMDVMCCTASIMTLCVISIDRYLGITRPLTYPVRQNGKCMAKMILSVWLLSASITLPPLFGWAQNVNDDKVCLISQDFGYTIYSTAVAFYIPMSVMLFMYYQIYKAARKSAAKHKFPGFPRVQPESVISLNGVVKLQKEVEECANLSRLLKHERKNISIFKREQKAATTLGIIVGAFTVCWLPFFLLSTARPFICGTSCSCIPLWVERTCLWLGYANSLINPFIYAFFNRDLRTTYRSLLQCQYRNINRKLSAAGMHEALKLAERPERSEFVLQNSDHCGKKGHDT
# Sequence of 5-hydroxytryptamine receptor 2A (P14842 whole entry): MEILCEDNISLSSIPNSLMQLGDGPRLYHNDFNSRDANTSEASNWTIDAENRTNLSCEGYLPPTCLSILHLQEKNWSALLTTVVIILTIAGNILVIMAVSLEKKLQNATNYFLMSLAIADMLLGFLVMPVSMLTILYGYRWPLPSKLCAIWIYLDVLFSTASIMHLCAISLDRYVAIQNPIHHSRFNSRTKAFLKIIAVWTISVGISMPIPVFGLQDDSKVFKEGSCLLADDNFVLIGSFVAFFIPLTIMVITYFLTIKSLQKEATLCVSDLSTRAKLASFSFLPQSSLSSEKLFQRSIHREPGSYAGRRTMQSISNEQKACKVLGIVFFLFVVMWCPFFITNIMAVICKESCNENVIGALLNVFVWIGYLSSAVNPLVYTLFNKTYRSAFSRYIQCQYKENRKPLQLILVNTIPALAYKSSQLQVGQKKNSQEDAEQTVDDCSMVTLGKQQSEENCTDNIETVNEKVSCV
compound,measurement,setting,value
Clc1cccc(N2CCNCC2)c1 [mCPP],Ki,[1],251 nM
same,Ki,[2],1580 nM
same,Ki,[3],100 nM
same,Ki,[4],200 nM
same,Ki,[5],251 nM
same,Ki,[6],2510 nM
